Test results from ChEMBL document CHEMBL1152710, “The design and discovery of novel amide CCR5 antagonists” (Bioorg Med Chem Lett, 2009).
Values belong to the compound of their own block, whether it stands above or below them.

Assays:
[1] = target: T1, C-C chemokine receptor type 5 (Homo sapiens, UniProt P51681); assay: Antagonist activity at human recombinant CCR5 expressed in human HeLa-P4 cells assessed as inhibition of human HeLa-P4 cells binding to HIV1 gp160 expressing CHO cells at 10 uM by cell-cell fusion assay; type: cell-based; design: scale not given: the % may be the effect or the level left
Target sequence in this assay (P51681 whole entry, looked up, the tested form may be a part): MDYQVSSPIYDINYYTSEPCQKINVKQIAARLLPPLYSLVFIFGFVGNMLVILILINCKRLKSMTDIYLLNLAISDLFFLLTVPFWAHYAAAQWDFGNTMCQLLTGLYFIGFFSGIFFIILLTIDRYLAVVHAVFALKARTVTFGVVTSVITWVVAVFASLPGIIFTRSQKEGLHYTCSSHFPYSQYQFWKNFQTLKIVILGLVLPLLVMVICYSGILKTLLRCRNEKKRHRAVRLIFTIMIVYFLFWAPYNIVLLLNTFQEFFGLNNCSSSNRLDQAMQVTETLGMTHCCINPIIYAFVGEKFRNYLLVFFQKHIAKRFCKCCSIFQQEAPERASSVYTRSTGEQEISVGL

[2] = target: T1, C-C chemokine receptor type 5; assay: Antagonist activity at human recombinant CCR5 expressed in human HeLa-P4 cells assessed as inhibition of human HeLa-P4 cells binding to HIV1 gp160 expressing CHO cells at 1 uM by cell-cell fusion assay; type: cell-based; design: scale not given: the % may be the effect or the level left
Target sequence in this assay (P51681 whole entry, looked up, the tested form may be a part): as above

[3] = target: T1, C-C chemokine receptor type 5; assay: Antagonist activity at human recombinant CCR5 expressed in human HeLa-P4 cells assessed as inhibition of human HeLa-P4 cells binding to HIV1 gp160 expressing CHO cells at 100 nM by cell-cell fusion assay; type: cell-based; design: scale not given: the % may be the effect or the level left
Target sequence in this assay (P51681 whole entry, looked up, the tested form may be a part): as above

[4] = Lipophilicity, log D at pH 7.4; type: physicochemical; conditions: buffer
[5] = Metabolic stability in human liver microsomes assessed as intrinsic clearance at 1 uM after 30 mins; type: ADME, Microsome
[6] = system: Human immunodeficiency virus 1; assay: Antiviral activity against HIV1 Bal infected in human PM1 cells assessed as inhibition of viral replication; type: functional; conditions: Human immunodeficiency virus 1, Bal
[7] = target: T1, C-C chemokine receptor type 5; assay: Displacement of [125]Mip1beta form CCR5 receptor expressed in MIP34.10 cells; type: cell-based
Target sequence in this assay (P51681 whole entry, the tested form may be a part): as the sequence (P51681 whole entry, looked up, the tested form may be a part) above

[8] = target: Voltage-gated inwardly rectifying potassium channel KCNH2 (Homo sapiens, UniProt Q12809); assay: Displacement of [3H]dofetilide form human ERG expressed in HEK239 cells
Chain of Voltage-gated inwardly rectifying potassium channel KCNH2 (Q12809 whole entry): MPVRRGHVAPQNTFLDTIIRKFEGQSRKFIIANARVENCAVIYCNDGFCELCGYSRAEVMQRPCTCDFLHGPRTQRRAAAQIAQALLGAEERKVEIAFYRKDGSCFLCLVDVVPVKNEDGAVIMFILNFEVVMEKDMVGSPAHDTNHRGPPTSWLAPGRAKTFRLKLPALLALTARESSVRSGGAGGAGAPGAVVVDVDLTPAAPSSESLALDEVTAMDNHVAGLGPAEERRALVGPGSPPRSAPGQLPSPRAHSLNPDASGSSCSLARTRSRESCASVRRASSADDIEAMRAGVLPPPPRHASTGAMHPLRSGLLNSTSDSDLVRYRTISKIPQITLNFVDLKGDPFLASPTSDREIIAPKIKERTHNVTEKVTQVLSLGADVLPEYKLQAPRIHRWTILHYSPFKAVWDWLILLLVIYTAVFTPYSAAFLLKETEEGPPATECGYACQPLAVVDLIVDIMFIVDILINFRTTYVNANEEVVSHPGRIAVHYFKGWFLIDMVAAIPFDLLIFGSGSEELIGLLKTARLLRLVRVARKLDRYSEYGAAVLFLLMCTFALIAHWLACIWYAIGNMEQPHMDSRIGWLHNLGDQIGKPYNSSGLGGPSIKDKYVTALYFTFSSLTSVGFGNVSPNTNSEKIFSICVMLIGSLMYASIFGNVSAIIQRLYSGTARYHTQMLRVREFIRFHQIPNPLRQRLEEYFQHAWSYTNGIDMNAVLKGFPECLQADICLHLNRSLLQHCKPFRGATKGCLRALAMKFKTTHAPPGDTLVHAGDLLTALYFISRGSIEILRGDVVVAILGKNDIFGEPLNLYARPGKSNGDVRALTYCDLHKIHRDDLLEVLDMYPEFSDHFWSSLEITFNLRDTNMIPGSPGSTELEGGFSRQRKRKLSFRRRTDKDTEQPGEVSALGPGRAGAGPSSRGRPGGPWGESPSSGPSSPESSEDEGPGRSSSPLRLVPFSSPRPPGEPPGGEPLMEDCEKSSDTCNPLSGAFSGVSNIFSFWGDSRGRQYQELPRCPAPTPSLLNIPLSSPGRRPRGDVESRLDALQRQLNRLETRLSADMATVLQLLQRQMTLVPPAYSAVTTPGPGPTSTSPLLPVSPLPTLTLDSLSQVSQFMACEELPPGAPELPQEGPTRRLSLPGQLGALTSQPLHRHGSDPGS

Structure (SMILES): CC(=O)NC(c1ccccc1)C1CCCN(CCNC(=O)c2c(C)cccc2C)C1 (single isomer, unassigned; diastereomer 2)
Activity [1]: 12%

Structure (SMILES): Cc1ccnc(C)c1C(=O)N1[C@@H]2CC[C@H]1C[C@H](N1CCN(C(c3ccccc3)c3ccccc3)CC1)C2
Activity [3]: 6%

Structure (SMILES): Cc1cccc(C)c1C(=O)N1CCC(N2CCC(N(Cc3ccccc3)C(=O)C3CCC3)CC2)CC1
logD [4]: 3.5
microsomal CLint at 1 µM [5]: 205 µL/min/mg
IC90 [6]: 40 nM

Structure (SMILES): Cc1cccc(C)c1C(=O)N1CCC(N2CCCC(CC(NC(=O)C3CCC3)c3ccccc3)C2)CC1 (mixture of isomers)
Activity [1]: 20%

Structure (SMILES): Cc1cccc(C)c1C(=O)N1CCC(N2CC[C@@H](N(Cc3ccccc3)C(=O)C3CC3)C2)CC1
IC50 [7]: 8 nM
IC50 [8]: 9800 nM
logD [4]: 2.6
microsomal CLint at 1 µM [5]: 195 µL/min/mg
IC90 [6]: 2 nM

Structure (SMILES): Cc1ccnc(C)c1C(=O)N1[C@@H]2CC[C@H]1C[C@@H](N1CCN(C(c3ccccc3)c3ccccc3)CC1)C2
Activity [1]: 21%

Structure (SMILES): Cc1ccnc(C)c1C(=O)N1CCN(CCC(c2ccccc2)c2ccccc2)CC1
Activity [1]: 0%

Structure (SMILES): CC(=O)NC(c1ccccc1)C1CCCN(C2CCN(C(=O)c3c(C)cccc3C)CC2)C1 (single isomer, unassigned; diastereomer 1)
Activity [1]: 28%

Structure (SMILES): Cc1ccnc(C)c1C(=O)N1CCN(C2C[C@H]3CC[C@@H](C2)N3C(c2ccccc2)c2ccccc2)CC1 (mixture of isomers)
Activity [1]: 25%

Structure (SMILES): CC(=O)NC(c1ccccc1)[C@H]1CCN(C2CCN(C(=O)c3c(C)cccc3C)CC2)C1 (single isomer, unassigned; diastereomer 2)
Activity [1]: 0%

Structure (SMILES): CC(=O)NC(c1ccccc1)C1CCCN(CCNC(=O)c2c(C)cccc2C)C1 (single isomer, unassigned; diastereomer 1)
Activity [1]: 20%

Second part, the compound after the results:

Activity [2]: 10%
Structure (SMILES): Cc1cccc(C)c1C(=O)N1CCC(N2[C@@H]3CC[C@H]2C[C@H](N(Cc2ccccc2)C(=O)C2CC2)C3)CC1

Activity [1]: 20%
Structure (SMILES): CC(=O)NC1(c2ccccc2)CCN(C2CCN(C(=O)c3c(C)ccnc3C)CC2)CC1

Activity [1]: 19%
Structure (SMILES): Cc1cccc(C)c1C(=O)N1CCC(N2CCCC(N(Cc3ccccc3)C(=O)C3CC3)C2)CC1 (racemic)

Activity [1]: 50%
Structure (SMILES): CC(=O)NC(CN1CC(N(C)C2CCN(C(=O)c3c(C)cccc3C)CC2)C1)c1ccccc1 (centres undefined)

Activity [2]: 18%
Structure (SMILES): CC(=O)NC(c1ccccc1)[C@H]1CCN(C2CCN(C(=O)c3c(C)cccc3C)CC2)C1 (single isomer, unassigned; diastereomer 1)

Activity [1]: 0%
Structure (SMILES): CC(=O)NC(c1ccccc1)C1CCCN(C2CCN(C(=O)c3c(C)cccc3C)CC2)C1 (single isomer, unassigned; diastereomer 2)

Activity [1]: 20%
Structure (SMILES): Cc1cccc(C)c1C(=O)N1CCC(N(C)C2CN(C(CNC(=O)C3CCC3)c3ccccc3)C2)CC1 (centres undefined)

Activity [2]: 18%
Structure (SMILES): Cc1ccnc(C)c1C(=O)N1CCC(N2CCC(CNC(=O)C3CC3)(Cc3ccccc3)CC2)CC1

Activity [3]: 13%
Structure (SMILES): Cc1ccnc(C)c1C(=O)N1CCC(N(C)CCC(c2ccccc2)c2ccccc2)CC1

Activity [3]: 12%
Structure (SMILES): Cc1ccnc(C)c1C(=O)N1C2CCC1CN(C1CCN(C(c3ccccc3)c3ccccc3)CC1)C2

Activity [1]: 20%
Structure (SMILES): Cc1ccnc(C)c1C(=O)N1CCC(N2CCC(C(Cc3ccccc3)C(=O)NCC3CC3)CC2)CC1 (centres undefined)

Activity [3]: 15%
Structure (SMILES): Cc1ccnc(C)c1C(=O)NCCN1CCN(C(c2ccccc2)c2ccccc2)CC1
